Laboratory results: US11608324B2, “Solid forms of fasoracetam” (The Children's Hospital of Philadelphia, priority 2018, dated 2023)

Assays:
[1] = subjects having a genetic alteration in an mGluR network gene; cited from earlier work
[2] = test system: metabotropic glutamate receptor (mGluR), all classes; conditions: Hirouchi M, et al. (2000); WO2017/044491; cited from earlier work
[3] = Hygroscopicity (statement); type: physicochemical
[4] = Solubility curve in ethyl acetate (Crystal16); type: physicochemical; conditions: FIG. 10
From the text: FIG. 7 is the x-ray powder diffraction of the R-fasoracetam monohydrate Form I starting material used in this Example 1, and FIG. 8 is the corresponding DSC thermogram of that starting material. A solubility curve was constructed for the cocrystal in ethyl acetate with the results plotted in FIG. 10 (from the data collected in Example 1) using a Crystal16 device from Technobis Crystallization Systems. The samples were created from the cocrystal without adding any additional water or other constituents. The samples were heated at a rate of 1°/15 minutes.

[5] = Thermogravimetric analysis (TGA), thermal stability; type: physicochemical
Procedure: TGA measurements were carried out on a METTLER TOLEDO TGA/SDTA 851e. Samples were placed in open aluminum oxide crucible. All experiments were performed under nitrogen flow.
A TGA plot can be found at FIG. 6. The sample was equilibrated at 30.0° C. for five minutes prior to ramping. A heating rate of 5° C. per minute was used from 30.0° C. to 350.0° C. No significant weight loss was observed until temperatures greater than 180° C. were recorded.

## O=C1CC[C@H](C(=O)N2CCCCC2)N1 [fasoracetam]
[1]
  treatment outcome in ADHD: successfully treated
[2]
  activity against mGluRs in vitro: nonselective activator against all classes of mGluRs

## O=C1CC[C@H](C(=O)N2CCCCC2)N1 [R-fasoracetam anhydrate]
[3]
  hygroscopicity: hygroscopic

## Nc1ccc(C(=O)O)cc1.O=C1CC[C@H](C(=O)N2CCCCC2)N1 [R-fasoracetam:PABA cocrystal]
[4]
  solubility as compared with R-fasoracetam monohydrate Form I: approximately three-fold lower
[5]; TGA, FIG. 6
  thermal stability by TGA, stable up to: about 200 °C
[5]; heating rate 5° C. per minute from 30.0° C. to 350.0° C.
  temperature until which no significant weight loss was observed (TGA): greater than 180 °C
